Data on one molecule can be found in PMC8402032, “Unsymmetric Cisplatin-Based Pt(IV) Conjugates Containing a PARP-1 Inhibitor Pharmacophore Tested on Malignant Pleural Mesothelioma Cell Lines” (Molecules, 2021).

The subject of data set [1] is MSTO-211H multicellular spheroids (MCS). The data set is described as follows: Apoptosis in MSTO-211H multicellular spheroids. Type of data set: cell-based, human. As to conditions: MSTO-211H MCS, 10 μM, 72 h; spheroid morphology, PARP-1 cleavage, BIM and PUMA induction. The protocol:
The capability of compound 6 to induce apoptosis was confirmed also when MSTO-211H cells were cultured as multicellular spheroids (MCSs). MCSs and other similar 3D cultures represent an improvement of classical 2D conditions, having a more complex architectural structure and better bio-mimicking of the in vivo microenvironment. Although they suffer many of the limitations of the 2D cultures, they are a powerful tool to narrow down the gap between the in vitro and in vivo models.
Multicellular spheroids were generated in non-adsorbent round-bottomed 96-well plates, as previously described. The 96-well plates were coated with a 1:24 dilution of polyHEMA (120 mg mL^−1) in 95% ethanol and dried at 37 °C for 24 h. Before use, plates were sterilized by UV light for 30 min. For generation of multicellular spheroids, 1 × 10^4 cells were added into each well of a polyHEMA-coated 96-well plate and placed in a 37 °C humidified incubator with 5% CO2. Every 24 h, 50% of supernatant was replaced with fresh medium.
Figure 5 Compound 6 induces apoptosis in MSTO-211H multicellular spheroids (MCS). (A) Representative microscope images of MCS treated for 72 h with diluent (Ctrl) or 10 μM 6. Scale bar = 100 μm. (B) Representative Western blot showing PARP-1 cleavage in MSTO-211H MCS treated with 6. Tubulin was used as loading control. […]

For a further data set, the system named is MSTO-211H cells. Briefly: Cell uptake (intracellular Pt by ICP-MS). The following applies: 10 μM, 4 h treatment, mean ± sd. Type of data set: cell-based, human. As to the method: Cellular accumulation of compounds 6–9 was evaluated by means of the intracellular Pt uptake after 4 h treatment of MSTO-211H cells and expressed as ng Pt per 10^6 cells (Table 1). As expected, the Fmoc protection of 6 and 7 enhances the lipophilicity of the complexes, facilitating their cell uptake. Also the elongation of the organic linker from -(CH2)2- to -(CH2)6- increases (to a minor extent) the lipophilicity in 7 and 9 with respect to 6 and 8.
MSTO-211H cells were seeded in […] Petri dishes and challenged with the compounds and mixtures under investigations (10 μM) in complete medium. At the end of the exposure, cells were washed three times with phosphate buffered saline (PBS) and detached from the Petri dishes using 0.05% Trypsin 1X + 2% EDTA (HyClone, Thermo Fisher). The cells were harvested in fresh complete medium and an automatic cell counting device (Countess®, Life Technologies, Carlsbad, CA, USA) was used to measure the number and the mean diameter from every cell count. The harvested cells were transferred into a borosilicate glass tube and centrifuged at 1100× g rpm for 5 min at room temperature. The supernatant was carefully removed by aspiration, but about 200 μL of the supernatant was left in order to limit the cellular loss. Finally, the cellular pellets were stored at −80 °C. Platinum content determination was performed by ICP-MS (Thermo Optek X Series 2). Complete mineralization was obtained by the addition of 70% w/w HNO3 to each sample (after defrosting), followed by incubation for 1 h at 60 °C in an ultrasonic bath. Before the ICP-MS measurement, the HNO3 was diluted to a final 1% concentration. The instrumental settings were optimized to yield maximum sensitivity for platinum, and the most abundant isotopes of Pt (m/z = 195) and In (m/z = 115, used as internal standard) were quantified. The level of Pt found in cells after the treatment was normalized to the cell number and expressed as ng of Pt per 10^6 cells.

Data set [2] deals with MM98 (sarcomatoid) malignant pleural mesothelioma cells. The data set is described as follows: Cell viability assay (Trypan blue dye exclusion), MM98. Type of data set: cell-based, human. As to conditions: 72 h treatment. As to the method: (§1) Complexes 6–9 were tested on a panel of human MPM cell lines together with CDDP and SAA1, added for comparison (Table 1). The half-maximal inhibitory concentration, IC50, was determined on MSTO-211H (biphasic phenotype), REN (epithelioid), BR95 (epithelioid), and MM98 (sarcomatoid) cancer cell lines to identify the most promising Pt(IV) conjugate to be further investigated. To determine the number of viable cells, the use of the dye exclusion assay was preferred to the colorimetric assay because of the heterogeneity in the energy metabolism between the different MPM cell lines. This may justify minor differences with respect to the previously published IC50 for CDDP [40].
(§2) Cells were seeded at a density of 10 × 10^4 cells per well in 6-well plates in RPMI medium supplemented with 10% fetal bovine serum (FBS), 100 μg mL^−1 streptomycin, and 10 μg mL^−1 penicillin and incubated overnight at 37 °C in a humidified environment containing 5% CO2 to allow adherence. Cisplatin was dissolved in 0.9% w/v aqueous NaCl brought to pH = 3 with HCl (final stock concentration 1 mM). The Pt(IV) complexes were dissolved in DMSO (final stock concentration 5 mM); the resulting solutions were microfiltered (0.45 μm) and their Pt content was checked by ICP-MS (see Section 3.5.2). These mother solutions were diluted in complete medium to the required concentration range.
(§3) Following 72 h of treatment with the diluent of the compound (Ctrl) or different doses of the Pt compounds, cells were trypsinized and stained with Trypan blue. The number of cells considered viable (unstained cells) was counted in a Bürker haemocytometer within 5 min after staining.

Data set [3] in a line: Lipophilicity by RP-HPLC (log k′). Type of data set: physicochemical. The following applies: RP-HPLC C18, 15 mM formic acid/CH3OH 30/70. The text has this:
Since it has been reported that Pt(IV) complexes enter cells by passive diffusion only, with a few exceptions, the evaluation of lipophilicity is key because it is related to the ability of a molecule to passively cross cellular membranes. RP-HPLC techniques are often used to measure the lipophilicity of a compound, since the retention is due to partitioning between the C18 chains of the stationary phase (representing the cellular membrane) and the aqueous eluent (representing the water inside and outside cells). For this purpose, the retention times (tR) of the complexes were transformed as log k′, where k′ = (tR − t0)/t0) and t0 is the column dead-time (Table 1).
RP-HPLC was used to evaluate the capacity factors of the compounds as reported elsewhere. Briefly, a chromatogram for each Pt complex (0.5 mM) was run on a C18 column Phenosphere-NEXT (5-μm, 250 × 4.6 mm ID) with an eluant composition of 15 mM formic acid/CH3OH 30/70 and a flow rate of 0.5 mL min^−1. The corresponding retention time tR was used to calculate log k′, where k′ = (tR − t0)/t0. The dead time of the column t0 was the tR of KCl, added as unretained internal reference.

The subject of data set [4] is MSTO-211H (biphasic phenotype) malignant pleural mesothelioma cells. The data set is described as follows: Cell viability assay (Trypan blue dye exclusion), MSTO-211H. It counts as cell-based, human. The following applies: 72 h treatment. The protocol: as §1, §2, §3

One may read the IC50 as the point on the concentration scale where inhibition reaches its midpoint. As for `CC(=O)[O][Pt]([NH2])([NH2])([Cl])([Cl])[O]C(=O)CCNC(=O)c1cccc(NC(=O)OCC2c3ccccc3-c3ccccc32)c1` [Compound 6, (OC-6-44)-Acetato[3-(3-(fmoc-amino)-benzamido)-propanoato]-diammine-dichlorido-platinum(IV)], the “apoptosis in multicellular spheroids” value in data set [1] is “apoptotic death was evidenced”. Also, the “Pt Uptake” value in the data set on MSTO-211H cells was determined as 10.64 ± 1.77 ng Pt per 10^6 Cells. In addition, the “ratio IC50 (cisplatin)/IC50 (Pt(IV) complex), MM98” value in data set [2] turned out to be 1.8. Also, the IC50 in data set [2] (mean ± sd) worked out at 980 ± 30 nM; in data set [4] (mean ± sd, read-out: IC50 MSTO-211H) it was 690 ± 30 nM. Also, the “Log k′” value in data set [3] came to 4.22. The “ratio IC50 (cisplatin)/IC50 (Pt(IV) complex), MSTO-211H” value in data set [4] stood at 1.6.
